Results as given in US20130156762A1, “Mechanically-Activated Cation Channels” (The Scripps Research Institute, priority 2010, published 2013).
Each block holds one molecule with its values, some of them ahead of it.

Columns and labels:
Piezo2 = target: T1, Piezo2 (Mus musculus, UniProt Q8CD54); experiment: Block of Piezo2-induced MA currents in Piezo2-expressing cells (whole-cell); format: cell-based; conditions: for Percent block of Piezo2-induced MA currents: 30 μM
T1 construct: expressed in transfected cells; host or cells: N2A (with Piezo1 siRNA) or HEK293T; A13: N2A
Description: (§1) Patch-clamp experiments were performed in standard whole-cell or cell attached recordings using an Axopatch 200B amplifier (Axon Instruments). Patch pipettes had resistance of 2-3 MΩ when filled with an internal solution consisting of (in mM) 133 CsCl, 10 HEPES, 5 EGTA, 1 CaCl2, 1 MgCl2, 4 MgATP, and 0.4 Na2GTP (pH adjusted to 7.3 with CsOH). The extracellular solution consisted of (in mM) 127-130 NaCl, 3 KCl, 1 MgCl2, 10 HEPES, 2.5 CaCl2, 10 glucose (pH adjusted to 7.3 with NaOH). NMDG solution consisted of (in mM) 150 NMDG, 10 HEPES (pH 7.5). For ion selectivity experiments, internal solution consisted of (in mM) 150 CsCl, 10 Hepes (pH 7.3 with CsOH), monovalent external solutions consisted of (in mM) 150 NaCl or KCl, 10 HEPES (pH 7.3 with NaOH or KOH) and divalent external solutions consisted of (in mM) 100 CaCl2 or MgCl2, 10 HEPES (pH 7.3 with CsOH). For cell attached recordings, pipette were filled with a solution consisting of (in mM) 130 NaCl, 5 KCl, 10 HEPES, 1 CaCl2, 1 MgCl2, 10 TEA-C1 (pH 7.3 with NaOH) and external solution used to zero the membrane potential consisted of (in mM) 140 KCl, 10 HEPES, 1 MgCl2, 10 glucose (pH 7.3 with KOH). All experiments were done at room temperature. Currents were sampled at 20 kHz and filtered at 2 kHz. Voltages were not corrected for a liquid junction potential excepted for ion selectivity experiments were LJP were calculated using Clampex 10.1 software (Axon Instruments). Leak currents before mechanical stimulations were subtracted off-line from the current traces. 10 mM ruthenium red stock solution was prepared in DMSO; 100 mM gadolinium stock solution, in water.
(§2) For whole-cell recordings mechanical stimulation was achieved using a fire-polished glass pipette (tip diameter 3-4 μm) positioned at an angle of 80° to the cell being recorded. Downward movement of the probe toward the cell was driven by a Clampex controlled piezo-electric crystal microstage (E625 LVPZT Controller/Amplifier; Physik Instrumente). […] Inward MA currents were recorded at a holding potential of −80 mV. […]

Piezo1 = target: T2, Piezo1 (Mus musculus, UniProt E2JF22); experiment: Block of Piezo1-induced MA currents in Piezo1-expressing cells (whole-cell); format: cell-based; conditions: for Percent block of Piezo1-induced MA current: 30 μM
T2 construct: expressed in transfected cells; HEK293T for immunocytochemistry
Description: as §1, §2

N2A cells = experiment: Whole-cell mechanical stimulation (piezo-driven glass probe), MA currents in N2A cells; format: cell-based, mouse
Description: Cell culture and transient transfection. Neuro2A cells were grown in Eagle's Minimum Essential Medium containing 4.5 mg.ml^−1 glucose, 10% fetal bovine serum, 50 units.ml^−1 penicillin and 50 μg.ml^−1 streptomycin. C2C12 or Human Embryonic Kidney 293T (HEK293T) cells were grown in Dulbecco's Modified Eagle Medium containing 4.5 mg.ml^−1 glucose, 10% fetal bovine serum, 50 units.ml^−1 penicillin and 50 μg.ml^−1 streptomycin. Cells were plated onto 35 mm dishes or 12-mm round glass coverslips placed in 24-well plates and transfected using lipofectamine 2000 (Invitrogen) according to the manufacturer's instructions. For Piezo1 overexpression experiment, 500 to 1000 ng.ml^−1 of Piezo1-IRES-GFP or vector only were transfected, and cells were recorded 12-48 hours later. For Piezo2 overexpression experiments, 600 to 1000 ng.ml^−1 of mPiezo2 or vector were co-transfected with 300 ng.ml^−1 GFP to identify transfected cells and cells were recorded 12-48 hours later. […]
(§3) Patch-clamp experiments were performed in standard whole-cell or cell attached recordings using an Axopatch 200B amplifier (Axon Instruments). […] Voltages were not corrected for a liquid junction potential excepted for ion selectivity experiments were LJP were calculated using Clampex 10.1 software (Axon Instruments). […]

C2C12 cells = experiment: Whole-cell mechanical stimulation, MA currents in C2C12 cells; format: cell-based, mouse; conditions: NMDG-chloride external solution, data not shown
Description: Cell culture and transient transfection. Neuro2A cells were grown in Eagle's Minimum Essential Medium containing 4.5 mg.ml^−1 glucose, 10% fetal bovine serum, 50 units.ml^−1 penicillin and 50 μg.ml^−1 streptomycin. C2C12 or Human Embryonic Kidney 293T (HEK293T) cells were grown in Dulbecco's Modified Eagle Medium containing 4.5 mg.ml^−1 glucose, 10% fetal bovine serum, 50 units.ml^−1 penicillin and 50 μg.ml^−1 streptomycin. Cells were plated onto 35 mm dishes or 12-mm round glass coverslips placed in 24-well plates and transfected using lipofectamine 2000 (Invitrogen) according to the manufacturer's instructions. For Piezo1 overexpression experiment, 500 to 1000 ng.ml^−1 of Piezo1-IRES-GFP or vector only were transfected, and cells were recorded 12-48 hours later. For Piezo2 overexpression experiments, 600 to 1000 ng.ml^−1 of mPiezo2 or vector were co-transfected with 300 ng.ml^−1 GFP to identify transfected cells and cells were recorded 12-48 hours later.
as §3

T2 sequence (E2JF22 whole entry): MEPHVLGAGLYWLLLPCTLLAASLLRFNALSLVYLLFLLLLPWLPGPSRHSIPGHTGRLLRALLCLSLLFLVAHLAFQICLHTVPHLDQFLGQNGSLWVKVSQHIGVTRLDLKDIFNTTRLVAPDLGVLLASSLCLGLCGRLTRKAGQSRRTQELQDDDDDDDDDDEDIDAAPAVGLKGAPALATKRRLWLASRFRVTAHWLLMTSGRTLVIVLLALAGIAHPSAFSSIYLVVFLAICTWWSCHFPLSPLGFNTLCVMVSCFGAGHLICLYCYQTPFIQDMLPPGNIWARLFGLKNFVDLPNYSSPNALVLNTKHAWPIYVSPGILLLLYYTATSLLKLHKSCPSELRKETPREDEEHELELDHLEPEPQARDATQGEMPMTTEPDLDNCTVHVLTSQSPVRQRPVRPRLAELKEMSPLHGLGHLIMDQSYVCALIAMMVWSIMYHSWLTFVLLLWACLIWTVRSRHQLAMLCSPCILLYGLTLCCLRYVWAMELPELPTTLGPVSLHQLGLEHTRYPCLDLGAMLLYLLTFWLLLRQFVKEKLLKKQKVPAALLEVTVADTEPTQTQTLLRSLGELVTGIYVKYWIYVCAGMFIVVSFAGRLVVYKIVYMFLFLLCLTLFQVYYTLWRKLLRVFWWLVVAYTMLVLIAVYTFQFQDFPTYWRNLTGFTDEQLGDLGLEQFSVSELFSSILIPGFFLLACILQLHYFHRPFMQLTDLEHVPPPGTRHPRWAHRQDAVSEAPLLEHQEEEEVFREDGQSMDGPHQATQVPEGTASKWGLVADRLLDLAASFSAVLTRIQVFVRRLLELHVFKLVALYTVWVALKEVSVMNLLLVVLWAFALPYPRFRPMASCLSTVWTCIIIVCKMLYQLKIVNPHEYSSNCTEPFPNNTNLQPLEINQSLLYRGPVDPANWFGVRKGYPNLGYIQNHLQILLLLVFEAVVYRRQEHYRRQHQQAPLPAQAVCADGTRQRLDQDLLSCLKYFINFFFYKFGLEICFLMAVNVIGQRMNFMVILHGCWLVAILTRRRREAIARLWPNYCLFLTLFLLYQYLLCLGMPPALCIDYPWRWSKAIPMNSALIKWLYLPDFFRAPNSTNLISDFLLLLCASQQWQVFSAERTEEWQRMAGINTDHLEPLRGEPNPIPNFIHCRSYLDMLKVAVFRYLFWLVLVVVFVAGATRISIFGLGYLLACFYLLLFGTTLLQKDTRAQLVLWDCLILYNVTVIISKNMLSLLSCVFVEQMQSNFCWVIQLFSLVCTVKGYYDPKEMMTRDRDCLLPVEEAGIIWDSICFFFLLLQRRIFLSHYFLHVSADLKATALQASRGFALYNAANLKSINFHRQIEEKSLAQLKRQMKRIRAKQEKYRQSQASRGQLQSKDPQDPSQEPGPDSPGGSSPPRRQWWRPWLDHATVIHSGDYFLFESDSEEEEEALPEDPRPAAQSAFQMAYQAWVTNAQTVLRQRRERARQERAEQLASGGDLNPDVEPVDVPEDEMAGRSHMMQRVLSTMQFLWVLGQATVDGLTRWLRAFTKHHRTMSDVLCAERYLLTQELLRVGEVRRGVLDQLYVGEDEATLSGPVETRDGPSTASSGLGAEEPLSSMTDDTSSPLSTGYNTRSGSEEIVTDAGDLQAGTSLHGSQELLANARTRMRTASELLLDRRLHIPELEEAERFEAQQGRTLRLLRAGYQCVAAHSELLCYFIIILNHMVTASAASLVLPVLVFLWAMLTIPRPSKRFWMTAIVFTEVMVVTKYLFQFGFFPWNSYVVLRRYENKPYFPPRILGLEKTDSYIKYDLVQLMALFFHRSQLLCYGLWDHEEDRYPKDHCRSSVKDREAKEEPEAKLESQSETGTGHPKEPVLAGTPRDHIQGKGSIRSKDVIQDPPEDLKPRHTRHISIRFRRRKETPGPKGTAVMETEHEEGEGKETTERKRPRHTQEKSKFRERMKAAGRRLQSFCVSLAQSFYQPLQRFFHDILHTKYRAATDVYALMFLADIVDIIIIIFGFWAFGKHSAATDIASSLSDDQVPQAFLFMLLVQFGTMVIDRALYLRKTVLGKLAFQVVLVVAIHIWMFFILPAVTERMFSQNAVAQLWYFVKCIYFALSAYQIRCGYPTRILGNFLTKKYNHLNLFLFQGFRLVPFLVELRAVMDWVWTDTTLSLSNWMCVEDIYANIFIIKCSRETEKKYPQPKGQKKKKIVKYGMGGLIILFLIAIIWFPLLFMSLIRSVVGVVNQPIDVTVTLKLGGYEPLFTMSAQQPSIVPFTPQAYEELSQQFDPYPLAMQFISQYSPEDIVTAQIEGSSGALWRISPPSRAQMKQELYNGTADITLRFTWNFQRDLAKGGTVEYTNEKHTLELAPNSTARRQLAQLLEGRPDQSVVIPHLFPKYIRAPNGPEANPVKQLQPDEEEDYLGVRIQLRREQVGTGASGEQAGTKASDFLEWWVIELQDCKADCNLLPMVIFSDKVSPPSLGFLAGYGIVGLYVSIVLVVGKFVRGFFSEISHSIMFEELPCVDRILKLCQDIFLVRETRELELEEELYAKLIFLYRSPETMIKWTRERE

Percent block of Piezo2-induced MA currents (Piezo2): 79.2±4.2% | Percent block of Piezo1-induced MA current (Piezo1): 74.6±2.5%
Structure (SMILES): N.N.N.N.N.N.N.N.N.N.N.N.N.N.[Cl-].[Cl-].[Cl-].[Cl-].[Cl-].[Cl-].[O-2].[O-2].[Ru+3].[Ru+3].[Ru+4] [ruthenium red]

Structure (SMILES): O=C(O)CN(CCOCCOCCN(CC(=O)O)CC(=O)O)CC(=O)O [EGTA]
Effect on MA currents (N2A cells; extracellular perfusion of divalent-free 5 mM EGTA solution for 30-60 min): did not suppress

Effect on Piezo2-induced currents (Piezo2; perfusion with NMDG-Cl solution): suppressed | Effect on inward Piezo1-induced MA currents (Piezo1; NMDG substituted in extracellular bathing solution (150 mM NMDG-Cl)): suppressed
Structure (SMILES): CNC[C@H](O)[C@@H](O)[C@H](O)[C@H](O)CO [NMDG]
Effect on inward endogenous MA currents (N2A cells; NMDG-chloride external solution, data not shown): suppressed | Effect on inward endogenous MA currents (C2C12 cells): suppressed

Structure (SMILES): [Gd] [gadolinium]
Percent block of Piezo2-induced MA currents (Piezo2): 85.0±3.7% | Percent block of Piezo1-induced MA current (Piezo1): 84.3±3.8%
